Read-outs that look alike come from different tables or passages of the source.
Experiments:
Format in all cases: binding
[1] = biological target: T1, HeLa cell extract proteins (Homo sapiens, UniProt A3KMH1)
T1 construct: endogenous in cells; host or cells: HeLa cell extract

[2] = biological target: T2, HeLa cell extract proteins (Homo sapiens, UniProt A5YKK6)
T2 construct: endogenous in cells; host or cells: HeLa cell extract

[3] = biological target: T3, HeLa cell extract proteins (Homo sapiens, UniProt O15397)
T3 construct: endogenous in cells; host or cells: HeLa cell extract
T3 sequence (O15397 whole entry): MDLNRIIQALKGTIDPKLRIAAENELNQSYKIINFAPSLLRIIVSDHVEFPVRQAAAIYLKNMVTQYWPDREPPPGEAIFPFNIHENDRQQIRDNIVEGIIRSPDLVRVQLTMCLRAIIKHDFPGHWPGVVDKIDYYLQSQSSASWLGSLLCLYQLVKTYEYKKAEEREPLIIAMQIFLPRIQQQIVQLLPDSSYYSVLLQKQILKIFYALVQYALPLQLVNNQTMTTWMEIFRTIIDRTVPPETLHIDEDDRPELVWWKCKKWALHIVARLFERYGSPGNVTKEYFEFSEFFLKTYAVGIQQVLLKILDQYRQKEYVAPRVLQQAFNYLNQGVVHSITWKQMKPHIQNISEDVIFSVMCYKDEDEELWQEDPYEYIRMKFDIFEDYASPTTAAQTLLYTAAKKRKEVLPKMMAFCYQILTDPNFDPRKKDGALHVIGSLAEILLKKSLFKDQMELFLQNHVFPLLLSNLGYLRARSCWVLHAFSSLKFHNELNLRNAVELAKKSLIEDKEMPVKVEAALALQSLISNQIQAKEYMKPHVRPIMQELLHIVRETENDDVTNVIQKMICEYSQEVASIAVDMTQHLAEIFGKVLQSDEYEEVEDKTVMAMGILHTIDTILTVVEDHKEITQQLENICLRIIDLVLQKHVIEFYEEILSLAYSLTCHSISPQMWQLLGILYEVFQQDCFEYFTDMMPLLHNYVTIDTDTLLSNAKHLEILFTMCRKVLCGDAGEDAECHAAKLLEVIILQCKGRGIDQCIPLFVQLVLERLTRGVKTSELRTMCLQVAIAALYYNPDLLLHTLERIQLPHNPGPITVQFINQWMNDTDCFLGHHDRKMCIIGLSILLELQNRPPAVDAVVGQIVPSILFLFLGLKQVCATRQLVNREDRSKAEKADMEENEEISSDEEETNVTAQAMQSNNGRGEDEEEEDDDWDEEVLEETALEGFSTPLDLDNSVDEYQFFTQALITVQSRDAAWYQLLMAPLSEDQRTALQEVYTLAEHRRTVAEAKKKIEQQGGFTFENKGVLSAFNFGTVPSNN

[4] = biological target: T4, HeLa cell extract proteins (Homo sapiens, UniProt O95831)
T4 construct: endogenous in cells; host or cells: HeLa cell extract
T4 sequence (O95831 102-613): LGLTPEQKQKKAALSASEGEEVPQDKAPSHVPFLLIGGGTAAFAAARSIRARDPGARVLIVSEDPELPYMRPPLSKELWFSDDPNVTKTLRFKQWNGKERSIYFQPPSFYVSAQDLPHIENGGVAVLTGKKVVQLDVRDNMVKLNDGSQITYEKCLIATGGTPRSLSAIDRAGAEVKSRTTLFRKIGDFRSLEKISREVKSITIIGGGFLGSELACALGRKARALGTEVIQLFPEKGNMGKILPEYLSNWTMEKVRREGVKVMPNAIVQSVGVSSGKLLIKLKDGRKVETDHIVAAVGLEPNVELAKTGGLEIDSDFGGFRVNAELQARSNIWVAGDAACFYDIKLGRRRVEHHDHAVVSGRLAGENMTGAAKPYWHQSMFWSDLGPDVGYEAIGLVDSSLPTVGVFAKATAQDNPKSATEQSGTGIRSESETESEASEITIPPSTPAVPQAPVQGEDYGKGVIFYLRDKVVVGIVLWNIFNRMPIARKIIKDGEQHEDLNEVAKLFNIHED

[5] = biological target: T5, HeLa cell extract proteins (Homo sapiens, UniProt P52209)
T5 construct: endogenous in cells; host or cells: HeLa cell extract
T5 sequence (P52209 1-483): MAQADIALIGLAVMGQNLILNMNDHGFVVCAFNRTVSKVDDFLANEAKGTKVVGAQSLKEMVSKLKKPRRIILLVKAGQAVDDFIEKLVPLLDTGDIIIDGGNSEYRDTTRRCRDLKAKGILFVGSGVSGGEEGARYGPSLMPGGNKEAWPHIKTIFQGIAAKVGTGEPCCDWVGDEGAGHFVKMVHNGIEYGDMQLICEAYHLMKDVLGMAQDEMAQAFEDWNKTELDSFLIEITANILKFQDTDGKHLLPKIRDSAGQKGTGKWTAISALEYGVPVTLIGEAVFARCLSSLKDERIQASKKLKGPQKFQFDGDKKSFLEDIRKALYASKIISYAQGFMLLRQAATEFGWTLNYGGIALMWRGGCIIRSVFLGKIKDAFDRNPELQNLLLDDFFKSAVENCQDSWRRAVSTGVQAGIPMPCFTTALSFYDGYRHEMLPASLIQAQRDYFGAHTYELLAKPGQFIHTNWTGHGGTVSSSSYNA

[6] = biological target: T6, HeLa cell extract proteins (Homo sapiens, UniProt Q5H9R7)
T6 construct: endogenous in cells; host or cells: HeLa cell extract
T6 sequence (Q5H9R7 1-873): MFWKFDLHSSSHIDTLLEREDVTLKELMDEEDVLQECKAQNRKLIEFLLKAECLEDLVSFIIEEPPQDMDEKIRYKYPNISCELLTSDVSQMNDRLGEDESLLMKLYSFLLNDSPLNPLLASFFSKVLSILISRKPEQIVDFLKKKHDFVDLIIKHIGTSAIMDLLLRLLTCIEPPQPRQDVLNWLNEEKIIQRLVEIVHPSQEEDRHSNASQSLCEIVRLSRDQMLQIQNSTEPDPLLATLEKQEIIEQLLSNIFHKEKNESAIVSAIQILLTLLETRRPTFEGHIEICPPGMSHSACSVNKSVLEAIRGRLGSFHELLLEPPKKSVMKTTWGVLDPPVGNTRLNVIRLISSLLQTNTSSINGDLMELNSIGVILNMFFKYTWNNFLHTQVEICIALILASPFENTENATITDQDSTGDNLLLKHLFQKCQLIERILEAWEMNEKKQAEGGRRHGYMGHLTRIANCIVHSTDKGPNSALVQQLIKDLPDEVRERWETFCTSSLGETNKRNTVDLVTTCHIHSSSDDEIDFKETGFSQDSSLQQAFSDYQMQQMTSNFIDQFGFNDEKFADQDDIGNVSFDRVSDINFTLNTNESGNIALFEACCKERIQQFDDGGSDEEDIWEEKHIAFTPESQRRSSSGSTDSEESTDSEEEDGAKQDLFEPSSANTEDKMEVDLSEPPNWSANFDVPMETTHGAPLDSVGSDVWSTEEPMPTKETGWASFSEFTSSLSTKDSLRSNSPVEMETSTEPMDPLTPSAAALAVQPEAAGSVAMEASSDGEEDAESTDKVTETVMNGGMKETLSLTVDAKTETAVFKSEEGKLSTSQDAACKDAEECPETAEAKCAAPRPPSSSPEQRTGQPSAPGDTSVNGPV

[7] = biological target: T7, HeLa cell extract proteins (Homo sapiens, UniProt Q9HA64)
T7 construct: endogenous in cells; host or cells: HeLa cell extract
T7 sequence (Q9HA64 1-309): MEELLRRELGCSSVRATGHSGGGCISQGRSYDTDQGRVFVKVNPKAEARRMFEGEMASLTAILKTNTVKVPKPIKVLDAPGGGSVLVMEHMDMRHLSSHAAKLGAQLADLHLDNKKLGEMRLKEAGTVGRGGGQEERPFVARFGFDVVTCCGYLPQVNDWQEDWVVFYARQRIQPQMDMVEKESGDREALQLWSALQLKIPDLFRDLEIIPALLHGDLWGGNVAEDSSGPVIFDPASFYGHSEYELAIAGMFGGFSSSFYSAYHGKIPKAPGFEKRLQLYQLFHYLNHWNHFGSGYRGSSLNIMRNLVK

[8] = biological target: T8, HeLa cell extract proteins (Homo sapiens, UniProt Q9P035)
T8 construct: endogenous in cells; host or cells: HeLa cell extract
T8 sequence (Q9P035 1-362): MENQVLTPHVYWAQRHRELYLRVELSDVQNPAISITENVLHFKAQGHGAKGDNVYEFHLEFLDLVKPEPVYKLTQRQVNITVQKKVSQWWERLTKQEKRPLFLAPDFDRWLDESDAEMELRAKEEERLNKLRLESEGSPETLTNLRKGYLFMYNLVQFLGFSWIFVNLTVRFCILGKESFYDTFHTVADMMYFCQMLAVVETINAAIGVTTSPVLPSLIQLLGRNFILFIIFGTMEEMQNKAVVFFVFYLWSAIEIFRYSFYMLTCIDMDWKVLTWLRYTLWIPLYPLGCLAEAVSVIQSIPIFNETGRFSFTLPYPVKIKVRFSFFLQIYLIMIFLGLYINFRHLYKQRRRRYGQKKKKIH

[9] = HeLa, protein FN3KRP (KETOSAMINE-3-KINASE)
[10] = HeLa, protein PGD (56 KDA PROTEIN.)

T2 sequence (A5YKK6 whole entry): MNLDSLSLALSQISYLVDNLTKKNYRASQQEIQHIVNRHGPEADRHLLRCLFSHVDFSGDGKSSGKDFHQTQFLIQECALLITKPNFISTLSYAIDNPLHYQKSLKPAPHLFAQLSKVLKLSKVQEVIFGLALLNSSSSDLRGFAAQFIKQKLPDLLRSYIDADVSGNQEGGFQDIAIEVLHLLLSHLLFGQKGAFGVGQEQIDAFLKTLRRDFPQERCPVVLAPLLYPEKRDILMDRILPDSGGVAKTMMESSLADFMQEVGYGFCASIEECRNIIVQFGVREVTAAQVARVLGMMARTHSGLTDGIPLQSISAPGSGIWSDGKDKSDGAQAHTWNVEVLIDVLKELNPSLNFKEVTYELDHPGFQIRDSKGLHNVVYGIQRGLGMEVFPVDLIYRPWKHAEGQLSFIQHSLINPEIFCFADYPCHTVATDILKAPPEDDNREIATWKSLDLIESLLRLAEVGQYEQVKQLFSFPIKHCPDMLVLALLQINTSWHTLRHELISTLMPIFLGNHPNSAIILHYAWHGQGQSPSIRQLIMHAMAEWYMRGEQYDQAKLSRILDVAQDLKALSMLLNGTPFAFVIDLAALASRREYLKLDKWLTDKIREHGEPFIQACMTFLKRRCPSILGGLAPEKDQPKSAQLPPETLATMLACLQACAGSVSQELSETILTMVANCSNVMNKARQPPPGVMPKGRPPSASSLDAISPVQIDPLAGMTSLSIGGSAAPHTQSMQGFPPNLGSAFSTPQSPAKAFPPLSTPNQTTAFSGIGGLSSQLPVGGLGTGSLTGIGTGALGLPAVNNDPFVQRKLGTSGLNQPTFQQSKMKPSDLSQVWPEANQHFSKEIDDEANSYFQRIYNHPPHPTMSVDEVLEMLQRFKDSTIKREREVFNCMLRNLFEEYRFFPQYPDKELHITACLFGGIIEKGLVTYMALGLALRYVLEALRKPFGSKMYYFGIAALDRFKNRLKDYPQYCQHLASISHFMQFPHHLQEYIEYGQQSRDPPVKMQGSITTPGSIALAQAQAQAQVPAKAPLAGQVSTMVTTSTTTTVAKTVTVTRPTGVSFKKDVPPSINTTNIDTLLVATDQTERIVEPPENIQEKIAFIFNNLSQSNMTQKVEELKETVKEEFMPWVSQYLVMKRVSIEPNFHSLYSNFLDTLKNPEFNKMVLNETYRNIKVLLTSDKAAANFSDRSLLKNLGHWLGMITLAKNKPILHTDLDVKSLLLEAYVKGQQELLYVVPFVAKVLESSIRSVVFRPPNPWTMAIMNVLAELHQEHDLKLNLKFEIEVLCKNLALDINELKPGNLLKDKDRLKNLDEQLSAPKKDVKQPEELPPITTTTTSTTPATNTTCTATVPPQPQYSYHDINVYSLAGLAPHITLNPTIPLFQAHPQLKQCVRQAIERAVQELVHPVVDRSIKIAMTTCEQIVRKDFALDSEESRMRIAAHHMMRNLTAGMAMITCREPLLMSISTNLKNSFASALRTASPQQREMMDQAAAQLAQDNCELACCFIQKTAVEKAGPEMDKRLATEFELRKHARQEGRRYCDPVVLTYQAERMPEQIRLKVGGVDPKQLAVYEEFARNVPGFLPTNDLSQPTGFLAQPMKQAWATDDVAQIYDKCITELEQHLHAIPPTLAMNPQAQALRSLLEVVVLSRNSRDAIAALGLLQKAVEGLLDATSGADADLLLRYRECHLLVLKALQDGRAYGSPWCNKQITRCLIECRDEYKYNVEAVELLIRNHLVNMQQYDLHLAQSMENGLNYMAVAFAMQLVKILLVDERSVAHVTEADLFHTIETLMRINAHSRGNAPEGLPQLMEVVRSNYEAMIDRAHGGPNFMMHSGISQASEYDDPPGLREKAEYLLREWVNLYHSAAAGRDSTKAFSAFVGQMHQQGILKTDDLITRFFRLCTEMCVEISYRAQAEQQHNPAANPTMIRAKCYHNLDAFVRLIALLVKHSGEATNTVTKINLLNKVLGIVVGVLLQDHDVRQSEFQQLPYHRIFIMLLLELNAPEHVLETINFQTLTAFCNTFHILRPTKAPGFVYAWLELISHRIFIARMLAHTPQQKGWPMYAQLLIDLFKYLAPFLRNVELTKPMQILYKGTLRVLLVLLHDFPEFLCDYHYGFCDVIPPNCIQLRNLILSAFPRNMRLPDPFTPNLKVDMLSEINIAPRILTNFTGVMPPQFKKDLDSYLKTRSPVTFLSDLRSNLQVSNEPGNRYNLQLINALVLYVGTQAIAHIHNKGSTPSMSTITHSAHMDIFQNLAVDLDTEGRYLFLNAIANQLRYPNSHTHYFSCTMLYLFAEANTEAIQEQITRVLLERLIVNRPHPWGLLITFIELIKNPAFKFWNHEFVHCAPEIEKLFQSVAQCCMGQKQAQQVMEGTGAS

SMILES	fold changes relative to vehicle control ([1]; HeLa, protein KIAA0564)	fold changes relative to vehicle control ([2]; HeLa, captured protein CNOT1)	fold changes relative to vehicle control ([3]; protein IPO8, HeLa)	fold changes relative to vehicle control ([4]; protein AIFM1, HeLa)	fold changes relative to vehicle control ([5]; protein PGD, HeLa)	fold changes relative to vehicle control ([6]; HeLa, protein SAPS3)	fold changes relative to vehicle control [7, 9]	fold changes relative to vehicle control ([8]; HeLa, protein PTPLAD1)	fold changes relative to vehicle control ([1]; protein KIAA0564, HeLa)	fold changes relative to vehicle control ([2]; protein CNOT1, HeLa)	fold changes relative to vehicle control ([3]; captured protein IPO8, HeLa)	fold changes relative to vehicle control ([4]; captured protein AIFM1, HeLa)	fold changes relative to vehicle control [5, 10]	fold changes relative to vehicle control ([7]; protein FN3KRP, HeLa)	fold changes relative to vehicle control ([8]; captured protein PTPLAD1, HeLa)	further results
Nc1nc2c(c(=O)[nH]1)N(C=O)C(CNc1ccc(C(=O)N[C@@H](CCC(=O)O)C(=O)O)cc1)CN2 (some centres unmarked) [LEU, leucovorin]	1	0.93	0.86	1.01	0.97	0.94	1.08	0.97	–	–	–	–	–	–	–	–
Nc1nc2[nH]cc(CCc3ccc(C(=O)N[C@@H](CCC(=O)O)C(=O)O)cc3)c2c(=O)[nH]1 [PTX, pemetrexed]	–	–	–	–	–	–	–	–	–	–	–	–	–	–	–	fold changes relative to vehicle control [1]: 0.99; fold changes relative to vehicle control [2]: 1; fold changes relative to vehicle control [3]: 0.83; fold changes relative to vehicle control [4]: 1.01; fold changes relative to vehicle control [5]: 1.17; fold changes relative to vehicle control [6]: 0.94; fold changes relative to vehicle control [7]: 1.01; fold changes relative to vehicle control [8]: 1
CCCCCCOc1ccc(Cc2cnc(N)nc2N)cc1 [compound 1]	–	–	–	–	–	0.96	–	–	0.99	1.3	0.55	0.97	1.44 fold	1	1.06	–
CCCCCCOc1cccc(Cc2cnc(N)nc2N)c1 [compound 2]	–	–	–	–	–	1.09	–	–	1.11	1.32	0.8	1	2.49 fold	0.9	1.02	–
Nc1nc2cccc(-c3ccccc3)c2n1Cc1ccc(Cl)c(Cl)c1 [compound 3]	–	–	–	–	–	1.11	–	–	1.1	1.37	0.6	0.92	0.86 fold	1.04	2.73	–
NCCOCCOCC(=O)Nc1nc2ncc(CNc3ccc(C(=O)NC(CCC(=O)O)C(=O)O)cc3)nc2c(=O)[nH]1 (centres unmarked) [compound 6]	1.1	1.17	0.91	0.99	1.35	0.88	0.85	1.04	–	–	–	–	–	–	–	–
NCCCNc1ccc(C(=O)NC(CCC(=O)O)C(=O)O)cc1 (centres unmarked) [compound 7]	1.09	1.16	0.82	1.06	0.86	0.93	1.07	1.05	–	–	–	–	–	–	–	–

Source: PMC6199744, “Development of Chemical Proteomics for the Folateome and Analysis of the Kinetoplastid Folateome” (ACS Infectious Diseases, 2018)
